Experimental data taken from ChEMBL document CHEMBL5360622, “Leucettinibs, a Class of DYRK/CLK Kinase Inhibitors Inspired by the Marine Sponge Natural Product Leucettamine B” (J Med Chem, 2023).

Tests used:
Conditions in all cases: dose 10.0 µM
[1] = target: Serine/threonine-protein kinase pim-3 (Homo sapiens) (UniProt Q86V86)
[2] = target: Homeodomain-interacting protein kinase 2 (Homo sapiens) (UniProt Q9H2X6)
[3] = target: T1, Mitogen-activated protein kinase 15 (Homo sapiens) (UniProt Q8TD08)
T1 sequence (whole entry): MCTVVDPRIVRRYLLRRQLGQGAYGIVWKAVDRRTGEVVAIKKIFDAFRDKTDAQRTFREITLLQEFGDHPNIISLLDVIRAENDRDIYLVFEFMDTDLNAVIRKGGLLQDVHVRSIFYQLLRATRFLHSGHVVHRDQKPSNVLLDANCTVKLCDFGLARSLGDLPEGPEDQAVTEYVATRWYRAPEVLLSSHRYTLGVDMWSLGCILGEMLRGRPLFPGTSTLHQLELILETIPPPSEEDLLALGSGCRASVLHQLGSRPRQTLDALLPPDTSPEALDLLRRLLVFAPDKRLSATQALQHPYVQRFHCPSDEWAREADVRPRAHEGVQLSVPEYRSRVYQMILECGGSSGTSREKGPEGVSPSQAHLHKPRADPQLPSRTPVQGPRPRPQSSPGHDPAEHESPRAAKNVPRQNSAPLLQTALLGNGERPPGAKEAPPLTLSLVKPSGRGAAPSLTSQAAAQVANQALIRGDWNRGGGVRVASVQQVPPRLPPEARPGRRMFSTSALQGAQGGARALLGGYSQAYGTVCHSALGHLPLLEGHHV

[4] = target: Dual specificity protein kinase CLK3 (Homo sapiens, UniProt P49761)
Sequence of Dual specificity protein kinase CLK3 (P49761 whole entry, looked up): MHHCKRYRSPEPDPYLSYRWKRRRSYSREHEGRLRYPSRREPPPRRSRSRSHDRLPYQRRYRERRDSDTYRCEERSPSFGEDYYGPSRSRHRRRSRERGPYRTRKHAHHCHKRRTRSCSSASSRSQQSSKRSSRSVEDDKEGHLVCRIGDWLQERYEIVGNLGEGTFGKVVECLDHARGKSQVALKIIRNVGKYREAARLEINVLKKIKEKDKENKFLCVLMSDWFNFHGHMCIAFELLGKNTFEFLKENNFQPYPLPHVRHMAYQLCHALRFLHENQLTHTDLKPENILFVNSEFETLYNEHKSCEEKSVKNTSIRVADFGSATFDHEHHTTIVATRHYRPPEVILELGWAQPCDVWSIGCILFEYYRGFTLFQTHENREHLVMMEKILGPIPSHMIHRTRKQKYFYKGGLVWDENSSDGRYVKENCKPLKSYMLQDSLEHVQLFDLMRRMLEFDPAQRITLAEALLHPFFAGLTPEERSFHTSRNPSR

[5] = target: Dual specificity protein kinase CLK1 (Homo sapiens, UniProt P49759)
Sequence of Dual specificity protein kinase CLK1 (P49759 whole entry, looked up): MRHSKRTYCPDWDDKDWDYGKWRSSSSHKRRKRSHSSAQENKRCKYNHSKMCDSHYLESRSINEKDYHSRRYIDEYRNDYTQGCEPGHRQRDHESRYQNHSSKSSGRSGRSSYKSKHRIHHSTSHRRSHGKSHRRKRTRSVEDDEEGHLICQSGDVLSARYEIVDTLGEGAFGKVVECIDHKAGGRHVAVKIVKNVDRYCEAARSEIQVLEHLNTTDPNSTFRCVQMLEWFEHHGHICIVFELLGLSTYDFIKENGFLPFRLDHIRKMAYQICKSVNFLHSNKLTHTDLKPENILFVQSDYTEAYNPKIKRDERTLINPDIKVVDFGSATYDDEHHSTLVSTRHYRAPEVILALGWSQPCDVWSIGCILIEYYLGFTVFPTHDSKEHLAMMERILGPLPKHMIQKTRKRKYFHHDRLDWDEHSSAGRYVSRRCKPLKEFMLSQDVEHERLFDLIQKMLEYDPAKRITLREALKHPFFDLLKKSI

[6] = target: Serine/threonine-protein kinase haspin (Homo sapiens) (UniProt Q8TF76)
Sequence of Serine/threonine-protein kinase haspin (Homo sapiens) (Q8TF76 whole entry, canonical isoform): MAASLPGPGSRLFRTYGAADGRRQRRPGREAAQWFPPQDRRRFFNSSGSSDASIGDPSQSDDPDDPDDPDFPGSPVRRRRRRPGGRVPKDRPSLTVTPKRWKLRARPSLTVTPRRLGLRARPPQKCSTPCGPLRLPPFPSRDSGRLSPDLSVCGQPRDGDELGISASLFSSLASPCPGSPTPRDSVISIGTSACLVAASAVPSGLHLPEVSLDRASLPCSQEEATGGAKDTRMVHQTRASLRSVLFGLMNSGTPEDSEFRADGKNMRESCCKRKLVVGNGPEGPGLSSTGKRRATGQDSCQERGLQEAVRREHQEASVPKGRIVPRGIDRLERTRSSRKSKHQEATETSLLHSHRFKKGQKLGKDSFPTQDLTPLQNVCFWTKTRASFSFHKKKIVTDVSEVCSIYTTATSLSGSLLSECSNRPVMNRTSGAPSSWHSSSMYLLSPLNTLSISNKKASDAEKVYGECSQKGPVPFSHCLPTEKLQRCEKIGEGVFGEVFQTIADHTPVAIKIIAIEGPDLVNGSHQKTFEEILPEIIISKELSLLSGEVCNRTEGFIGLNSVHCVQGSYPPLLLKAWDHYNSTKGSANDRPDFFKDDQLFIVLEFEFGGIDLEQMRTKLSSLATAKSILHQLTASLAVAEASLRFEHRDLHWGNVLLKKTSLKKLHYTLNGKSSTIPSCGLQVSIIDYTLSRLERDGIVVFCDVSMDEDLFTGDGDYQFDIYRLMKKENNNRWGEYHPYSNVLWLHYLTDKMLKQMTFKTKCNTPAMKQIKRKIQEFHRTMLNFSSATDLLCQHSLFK

[7] = target: Casein kinase I isoform delta (Homo sapiens) (UniProt P48730)
Sequence of Casein kinase I isoform delta (Homo sapiens) (P48730 whole entry, looked up, canonical isoform): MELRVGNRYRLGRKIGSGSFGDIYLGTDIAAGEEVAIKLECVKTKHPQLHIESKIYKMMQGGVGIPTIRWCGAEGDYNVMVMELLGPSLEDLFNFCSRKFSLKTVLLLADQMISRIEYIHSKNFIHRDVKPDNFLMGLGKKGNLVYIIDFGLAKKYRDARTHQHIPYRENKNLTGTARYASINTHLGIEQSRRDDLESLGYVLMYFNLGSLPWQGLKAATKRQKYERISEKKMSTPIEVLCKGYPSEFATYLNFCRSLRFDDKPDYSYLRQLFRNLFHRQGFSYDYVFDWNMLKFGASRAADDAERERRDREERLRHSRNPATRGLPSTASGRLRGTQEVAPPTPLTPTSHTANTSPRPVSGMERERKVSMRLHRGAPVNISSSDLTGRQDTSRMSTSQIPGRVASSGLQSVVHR

[8] = target: Dual specificity tyrosine-phosphorylation-regulated kinase 2 (Homo sapiens) (UniProt Q92630)
[9] = target: BMP-2-inducible protein kinase (Homo sapiens) (UniProt Q9NSY1)
[10] = target: Calcium/calmodulin-dependent protein kinase kinase 2 (Homo sapiens) (UniProt Q96RR4)
[11] = target: Glycogen synthase kinase-3 beta (Homo sapiens, UniProt P49841)
Sequence of Glycogen synthase kinase-3 beta (P49841 whole entry, looked up): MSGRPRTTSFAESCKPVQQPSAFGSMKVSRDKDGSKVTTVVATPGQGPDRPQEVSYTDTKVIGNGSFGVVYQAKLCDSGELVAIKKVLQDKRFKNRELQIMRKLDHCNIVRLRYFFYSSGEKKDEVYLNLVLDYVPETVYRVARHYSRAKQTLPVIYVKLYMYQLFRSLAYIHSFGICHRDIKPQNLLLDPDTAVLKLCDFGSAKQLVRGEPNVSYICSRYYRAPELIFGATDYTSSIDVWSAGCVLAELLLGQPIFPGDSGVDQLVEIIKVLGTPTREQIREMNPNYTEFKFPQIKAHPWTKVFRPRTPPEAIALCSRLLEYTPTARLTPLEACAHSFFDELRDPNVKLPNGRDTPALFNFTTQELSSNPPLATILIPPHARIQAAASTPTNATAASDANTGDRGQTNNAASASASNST

[12] = target: AP2-associated protein kinase 1 (Homo sapiens) (UniProt Q2M2I8)
[13] = target: Casein kinase I isoform epsilon (Homo sapiens, UniProt P49674)
Sequence of Casein kinase I isoform epsilon (P49674 whole entry, looked up, canonical isoform): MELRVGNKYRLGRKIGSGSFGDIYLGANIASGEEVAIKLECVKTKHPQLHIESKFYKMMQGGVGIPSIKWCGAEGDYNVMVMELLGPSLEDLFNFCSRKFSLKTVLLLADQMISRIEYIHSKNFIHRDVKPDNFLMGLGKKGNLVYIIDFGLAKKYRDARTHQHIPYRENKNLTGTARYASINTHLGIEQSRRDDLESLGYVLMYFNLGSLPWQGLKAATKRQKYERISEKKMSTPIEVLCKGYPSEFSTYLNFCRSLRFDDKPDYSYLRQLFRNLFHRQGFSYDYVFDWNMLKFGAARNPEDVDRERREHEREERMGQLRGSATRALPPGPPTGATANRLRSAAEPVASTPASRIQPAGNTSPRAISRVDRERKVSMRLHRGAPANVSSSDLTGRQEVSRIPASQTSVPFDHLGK

[14] = target: Aurora kinase A (Homo sapiens) (UniProt O14965)
[15] = target: Myotonin-protein kinase (Homo sapiens) (UniProt Q09013)
[16] = target: Casein kinase II subunit alpha (Homo sapiens) (UniProt P68400)
Sequence of Casein kinase II subunit alpha (Homo sapiens) (P68400 whole entry, looked up): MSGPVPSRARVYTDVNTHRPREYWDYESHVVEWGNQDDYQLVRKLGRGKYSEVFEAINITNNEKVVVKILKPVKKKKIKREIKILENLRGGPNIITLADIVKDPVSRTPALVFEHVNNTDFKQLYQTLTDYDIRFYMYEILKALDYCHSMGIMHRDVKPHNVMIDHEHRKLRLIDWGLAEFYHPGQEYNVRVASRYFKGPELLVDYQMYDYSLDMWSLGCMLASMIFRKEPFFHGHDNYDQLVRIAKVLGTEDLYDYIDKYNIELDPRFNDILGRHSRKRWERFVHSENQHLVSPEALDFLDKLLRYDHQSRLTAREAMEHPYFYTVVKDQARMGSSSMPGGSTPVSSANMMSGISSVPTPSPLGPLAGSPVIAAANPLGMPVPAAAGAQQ

Sequence of Homeodomain-interacting protein kinase 2 (Homo sapiens) (Q9H2X6 whole entry, looked up): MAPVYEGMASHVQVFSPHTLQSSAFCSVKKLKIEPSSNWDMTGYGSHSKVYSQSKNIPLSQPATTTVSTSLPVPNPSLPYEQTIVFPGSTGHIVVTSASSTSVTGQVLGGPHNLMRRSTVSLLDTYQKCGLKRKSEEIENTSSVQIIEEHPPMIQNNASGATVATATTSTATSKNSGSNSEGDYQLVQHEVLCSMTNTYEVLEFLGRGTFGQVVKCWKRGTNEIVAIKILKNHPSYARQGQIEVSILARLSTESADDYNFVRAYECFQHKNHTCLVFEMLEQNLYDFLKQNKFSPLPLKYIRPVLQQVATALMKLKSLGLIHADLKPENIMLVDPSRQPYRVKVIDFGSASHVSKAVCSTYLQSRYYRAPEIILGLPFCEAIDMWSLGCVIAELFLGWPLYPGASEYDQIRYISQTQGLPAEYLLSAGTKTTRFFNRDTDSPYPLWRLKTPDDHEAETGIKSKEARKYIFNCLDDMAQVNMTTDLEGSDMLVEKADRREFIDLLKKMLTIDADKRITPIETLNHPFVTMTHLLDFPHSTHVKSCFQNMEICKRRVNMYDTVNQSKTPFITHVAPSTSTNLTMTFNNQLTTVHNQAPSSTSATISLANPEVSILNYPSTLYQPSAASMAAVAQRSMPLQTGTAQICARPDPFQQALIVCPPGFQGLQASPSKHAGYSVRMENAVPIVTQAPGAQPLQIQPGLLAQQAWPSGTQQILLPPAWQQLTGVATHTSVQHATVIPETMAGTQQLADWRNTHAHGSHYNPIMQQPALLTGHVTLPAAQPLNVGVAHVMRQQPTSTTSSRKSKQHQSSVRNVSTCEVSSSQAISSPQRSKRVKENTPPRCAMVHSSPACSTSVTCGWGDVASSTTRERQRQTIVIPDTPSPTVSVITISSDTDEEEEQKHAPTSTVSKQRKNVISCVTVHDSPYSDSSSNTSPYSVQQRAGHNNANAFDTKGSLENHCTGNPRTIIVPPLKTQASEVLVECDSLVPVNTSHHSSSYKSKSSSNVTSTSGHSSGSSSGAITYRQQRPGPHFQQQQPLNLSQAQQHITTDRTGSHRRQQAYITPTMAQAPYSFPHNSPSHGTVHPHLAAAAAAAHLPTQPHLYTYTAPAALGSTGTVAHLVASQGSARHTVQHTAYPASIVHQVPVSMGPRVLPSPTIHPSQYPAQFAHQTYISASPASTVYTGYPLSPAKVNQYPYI

Row | ΔTm [4] [°C] | ΔTm [5] [°C] | ΔTm [6] [°C] | ΔTm [7] [°C] | ΔTm [8] [°C] | ΔTm [9] [°C] | ΔTm [10] [°C] | ΔTm [11] [°C] | ΔTm [12] [°C] | ΔTm [13] [°C] | ΔTm [14] [°C] | ΔTm [15] [°C] | ΔTm [16] [°C] | Compound | ΔTm [1] [°C] | ΔTm [2] [°C] | ΔTm [3] [°C]
1 | – | – | – | – | – | – | – | – | – | – | – | – | – | CN[C@@H]1C[C@H]2O[C@@](C)([C@@H]1OC)n1c3ccccc3c3c4c(c5c6ccccc6n2c5c31)C(=O)NC4 | 11.9 | 4.5 | 14
2 | 15 | 15.7 | – | – | – | – | – | – | – | – | – | – | – | CN1CCN(C(=O)C(C)(C)c2ccc(C(=O)Nc3cn4cc(-c5ccncc5)ccc4n3)cc2)CC1 | – | – | –
3 | 9.7 | 19.9 | 7.6 | 5 | 12.4 | 9.8 | 10.2 | 6.5 | 6.1 | 5.5 | 7.5 | 5.6 | 9.7 | O=C1NC(NC23CC4CC(CC(C4)C2)C3)=N/C1=C\c1ccc2ncsc2c1 | 5.5 | 5.2 | 10.3
4 | – | – | – | 9 | – | – | – | – | – | 8 | – | – | – | Nc1nccc(-c2c(-c3ccc(F)cc3)ncn2C2CCCCC2)n1 | – | – | –
